Earlier results on three molecules are cited in patent US12465589B2, “Method and composition for treating CNS disorders” (IGC Pharma IP, LLC, priority 2018, dated 2025).

Structures are written as SMILES.

For data set [1] the following is noted: literature reports.
The test system of data set [2] is acetylcholinesterase (AChE). Conditions: THC 50 micromolar.
For a further data set, the target named is Aβ protein (Homo sapiens, UniProt P05067). Conditions: in vitro.
A further data set concerns AD patients. Particulars: supplementation.

Sequence of Aβ protein (P05067 672-713 limits assumed): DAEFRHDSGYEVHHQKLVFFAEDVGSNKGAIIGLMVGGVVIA

Take `CCCCCc1cc(O)c2c(c1)OC(C)(C)[C@@H]1CCC(C)=C[C@@H]21` [THC, Δ9-tetrahydrocannabinol]: the “side effects of ingestion” value in data set [1] is on record as “acute psychotic reactions, anxiety, impaired neuropsychological performance, impaired memory, executive functioning disorder, mitochondrial dysfunction, neuron apoptosis”. In addition, in data set [2], the “AChE-induced amyloid β-peptide (Aβ) aggregation” value is given as “prevents” and the “inhibition of acetylcholinesterase (AChE)” value was “competitively inhibits”.

As for `COc1cc(/C=C/C(=O)CC(=O)/C=C/c2ccc(O)c(OC)c2)ccc1O` [curcumin], on Aβ protein, the “aggregation of Aβ” value was “prevent the aggregation of Aβ” and the “binding to Aβ protein” value is reported as “bind to Aβ protein”.

As to `COc1ccc2[nH]cc(CCNC(C)=O)c2c1` [melatonin, N-acetyl-5-methoxytryptamine], in the data set with AD patients, the circadian rhythmicity entry is “improve circadian rhythmicity” and the memory entry is “beneficial effects on memory”.
